How the values were obtained:
Factor XIIa = target: T1, Factor XIIa (Homo sapiens, UniProt P00748); assay: Inhibition of Factor XIIa, PFR-AMC substrate; type: biochemical
T1 sequence (P00748 373-615 limits assumed): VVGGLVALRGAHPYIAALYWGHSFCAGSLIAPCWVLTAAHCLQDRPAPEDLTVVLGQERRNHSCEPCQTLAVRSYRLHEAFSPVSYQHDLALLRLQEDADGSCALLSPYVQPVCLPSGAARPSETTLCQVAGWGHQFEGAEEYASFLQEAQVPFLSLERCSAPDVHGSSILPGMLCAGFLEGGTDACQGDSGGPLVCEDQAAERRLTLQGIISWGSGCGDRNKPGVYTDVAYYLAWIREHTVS

Bovine chymotrypsin = Bovine chymotrypsin (Bos taurus, UniProt P00766); assay: Inhibition of chymotrypsin, AAPF-pNA substrate; type: biochemical; settings: Chymotrypsin (5 nM), AAPF-pNA 0.08 mM

CC[C@H](C)[C@H](N)C(=O)N[C@@H](Cc1c[nH]cn1)C(=O)N[C@@H](CC(=O)O)C(=O)N[C@@H](Cc1ccccc1)C(=O)N[C@H]1CSSC[C@@H](C(=O)N[C@@H](C)C(=O)N[C@H](C(=O)N[C@H](C(=O)O)C(C)C)[C@@H](C)O)NC(=O)[C@H](CCCCN)NC(=O)[C@H](CCCCN)NC(=O)[C@H](CC(C)C)NC(=O)[C@@H]2CSSC[C@@H]3NC(=O)[C@H](CO)NC(=O)CNC(=O)[C@H](CC(=O)O)NC(=O)[C@H]([C@@H](C)O)NC(=O)[C@H](C(C)C)NC(=O)[C@H](CC(N)=O)NC(=O)[C@H](Cc4ccc(O)cc4)NC(=O)[C@H](Cc4c[nH]c5ccccc45)NC(=O)[C@H](Cc4c[nH]c5ccccc45)NC(=O)[C@H](CCCNC(=N)N)NC(=O)[C@@H]4CCCN4C(=O)[C@H](CCSC)NC(=O)[C@H](CO)NC(=O)[C@H](C)NC(=O)[C@H](CCCNC(=N)N)NC(=O)[C@H](CSSC[C@H](NC(=O)CNC(=O)CNC(=O)[C@H](Cc4ccc(O)cc4)NC(=O)[C@H](C(C)C)NC(=O)[C@H](Cc4ccccc4)NC(=O)[C@H](CC(C)C)NC(=O)[C@H](CCC(N)=O)NC3=O)C(=O)N[C@@H](CC(=O)O)C(=O)NCC(=O)N[C@@H](CC(N)=O)C(=O)N[C@@H](CO)C(=O)N[C@@H](CC(N)=O)C(=O)N[C@@H](CC(N)=O)C(=O)N[C@@H](Cc3ccc(O)cc3)C(=O)N[C@@H](CC(C)C)C(=O)N[C@@H]([C@@H](C)O)C(=O)N[C@@H](CCCCN)C(=O)N[C@@H](CCC(=O)O)C(=O)N[C@@H](CCC(=O)O)C(=O)N2)NC(=O)[C@H](CCCNC(=N)N)NC(=O)CNC(=O)[C@H](C(C)C)NC(=O)[C@H](C(C)C)NC(=O)[C@H](CCCCN)NC(=O)[C@H](CO)NC(=O)[C@H](C(C)C)NC(=O)[C@H](CC(C)C)NC1=O [bikunin (7–64)]
Ki (Factor XIIa): > 300 nM | Ki (Bovine chymotrypsin): 0.6 nM
